Columns and labels:
Assay type in all cases: biochemical
JAK3 = molecular target: T1, JAK3 (Homo sapiens, UniProt P52333); assay: JAK kinase assay (HTRF, phosphorylation of synthetic peptide), JAK3; details: catalytic domain, ATP at Km (2 μM); read-out: JAK3 kinase inhibitory activity (EC50)
T1 construct: All four purified enzymes contain only the catalytic domain; His (N); purchased Carna Biosciences, Inc; host or cells: baculovirus expression system

JAK2 = molecular target: T2, JAK2 (Homo sapiens, UniProt O60674); assay: JAK kinase assay (HTRF, phosphorylation of synthetic peptide), JAK2; details: catalytic domain, ATP at Km (4 μM); read-out: JAK2 kinase inhibitory activity (EC50)
T2 construct: All four purified enzymes contain only the catalytic domain; His (N); purchased Carna Biosciences, Inc; host or cells: baculovirus expression system
Outline: (§1)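 Catalytic-domain human JAK1 (GST-tagged, aa 850-1154) or His-tagged JAK2, baculovirus-expressed, phosphorylated 1 µM biotinylated TK peptide at Km ATP (JAK1 7 µM, 10 mM MgCl2, 50 nM SEB; JAK2 4 µM, 5 mM MgCl2) in pH 7.0 Hepes, 20-30 min RT. EDTA stop; overnight streptavidin-XL665/cryptate HTRF read.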

TYK2 = molecular target: T3, TYK2 (Homo sapiens, UniProt P29597); assay: JAK kinase assay (HTRF, phosphorylation of synthetic peptide), TYK2; details: catalytic domain, ATP at Km (13 μM); read-out: TYK2 kinase inhibitory activity (EC50)
T3 construct: JAK1 (aa 850-1154) and TYK2 (aa 871-1187) are expressed with an N-terminally fused GST-tag; GST (N); purchased Carna Biosciences, Inc; host or cells: baculovirus expression system
T3 sequence (P29597 871-1187): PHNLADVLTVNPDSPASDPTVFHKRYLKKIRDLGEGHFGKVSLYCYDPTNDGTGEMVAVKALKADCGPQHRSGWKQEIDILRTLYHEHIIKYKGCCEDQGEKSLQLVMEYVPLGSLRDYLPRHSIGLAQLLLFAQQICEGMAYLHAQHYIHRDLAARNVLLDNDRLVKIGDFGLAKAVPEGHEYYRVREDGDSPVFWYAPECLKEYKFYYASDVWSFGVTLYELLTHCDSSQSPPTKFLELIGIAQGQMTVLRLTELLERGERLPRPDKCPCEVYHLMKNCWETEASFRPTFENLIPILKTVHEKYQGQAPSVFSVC
Outline: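 1 µM biotinylated TK peptide at Km ATP in pH 7.0 Hepes, 20-30 min RT. EDTA stop; overnight streptavidin-XL665/cryptate HTRF read.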

JAK1 = molecular target: T4, JAK1 (Homo sapiens, UniProt P23458); assay: JAK kinase assay (HTRF, phosphorylation of synthetic peptide), JAK1; details: catalytic domain, ATP at Km (7 μM); read-out: JAK1 kinase inhibitory activity (EC50)
T4 construct: JAK1 (aa 850-1154) and TYK2 (aa 871-1187) are expressed with an N-terminally fused GST-tag; GST (N); purchased Carna Biosciences, Inc; host or cells: baculovirus expression system
Outline: as §1

T2 sequence (O60674 849-1124 limits assumed): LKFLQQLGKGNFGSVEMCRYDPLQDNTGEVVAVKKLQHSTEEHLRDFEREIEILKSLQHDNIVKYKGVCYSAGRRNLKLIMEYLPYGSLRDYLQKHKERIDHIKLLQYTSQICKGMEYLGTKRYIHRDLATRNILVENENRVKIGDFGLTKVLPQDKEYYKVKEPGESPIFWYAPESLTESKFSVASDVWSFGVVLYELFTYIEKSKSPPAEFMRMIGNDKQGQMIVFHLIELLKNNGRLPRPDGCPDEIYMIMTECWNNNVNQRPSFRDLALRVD
T1 sequence (P52333 822-1111 limits assumed): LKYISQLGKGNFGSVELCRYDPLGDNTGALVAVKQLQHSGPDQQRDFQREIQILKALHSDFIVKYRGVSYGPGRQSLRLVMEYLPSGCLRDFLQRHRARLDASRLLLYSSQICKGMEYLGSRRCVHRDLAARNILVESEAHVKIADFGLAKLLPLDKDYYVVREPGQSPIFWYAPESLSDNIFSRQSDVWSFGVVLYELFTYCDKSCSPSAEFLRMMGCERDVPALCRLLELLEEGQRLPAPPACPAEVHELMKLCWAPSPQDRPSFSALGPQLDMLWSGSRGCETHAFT
T4 sequence (P23458 850-1154): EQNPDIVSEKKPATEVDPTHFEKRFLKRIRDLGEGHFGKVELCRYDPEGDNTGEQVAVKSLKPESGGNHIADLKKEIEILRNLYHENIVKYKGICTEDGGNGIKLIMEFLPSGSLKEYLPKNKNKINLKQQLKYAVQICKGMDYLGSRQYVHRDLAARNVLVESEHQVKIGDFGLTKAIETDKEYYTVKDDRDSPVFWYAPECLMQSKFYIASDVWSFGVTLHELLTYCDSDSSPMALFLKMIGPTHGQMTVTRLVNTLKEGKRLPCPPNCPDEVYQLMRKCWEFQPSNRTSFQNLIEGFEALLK

| SMILES | EC50 (JAK3) [µM] | EC50 (JAK2) [µM] | EC50 (TYK2) [µM] | EC50 (JAK1) [µM] |
| --- | --- | --- | --- | --- |
| N#CCCCN(C1COC1)S(=O)(=O)N1CCN(c2ncnc3[nH]ccc23)CC12CC2 [Example 114, N-(3-cyanopropyl)-N-(oxetan-3-yl)-5-(7H-pyrrolo[2,3-d]pyrimidin-4-yl)-5,8-diazaspiro[2.5]octane-8-sulfonamide] | < 0.1 | < 0.1 | < 0.1 | < 0.1 |
| CC(C)N(CC#N)S(=O)(=O)N1CCN(c2ncnc3[nH]ccc23)CC12CC2 [Example 96, N-(cyanomethyl)-N-isopropyl-5-(7H-pyrrolo[2,3-d]pyrimidin-4-yl)-5,8-diazaspiro[2.5]octane-8-sulfonamide] | 0.1 to 0.5 | < 0.1 | > 0.5 | < 0.1 |
| CC(C)N(C)S(=O)(=O)N1CCN(c2ncnc3[nH]ccc23)CC12CC2 [Example 94, N-isopropyl-N-methyl-5-(7H-pyrrolo[2,3-d]pyrimidin-4-yl)-5,8-diazaspiro[2.5]octane-8-sulfonamide] | 0.1 to 0.5 | < 0.1 | > 0.5 | < 0.1 |
| CN(C)CCCN(C1CCC1)S(=O)(=O)N1CCN(c2ncnc3[nH]ccc23)CC12CC2 [Example 105, N-cyclobutyl-N-[3-(dimethylamino)propyl]-5-(7H-pyrrolo[2,3-d]pyrimidin-4-yl)-5,8-diazaspiro[2.5]octane-8-sulfonamide] | > 0.5 | < 0.1 | > 0.5 | 0.1 to 0.5 |
| CN(CCCC#N)S(=O)(=O)N1CCN(c2ncnc3[nH]ccc23)CC12CC2 [Example 35, 7-(7H-Pyrrolo[2,3-d]pyrimidin-4-yl)-4,7-diaza-spiro[2.5]octane-4-sulfonic acid (3-cyano-propyl)-methyl-amide] | < 0.1 | < 0.1 | < 0.1 | < 0.1 |
| CC(C)CCN(C)S(=O)(=O)N1CCN(c2ncnc3[nH]ccc23)CC12CC2 [Example 27, 7-(7H-Pyrrolo[2,3-d]pyrimidin-4-yl)-4,7-diaza-spiro[2.5]octane-4-sulfonic acid methyl-(3-methyl-butyl)-amide] | < 0.1 | < 0.1 | 0.1 to 0.5 | < 0.1 |
| CN(Cc1ccccc1)S(=O)(=O)N1CCN(c2ncnc3[nH]ccc23)CC12CC2 [Example 52, 7-(7H-Pyrrolo[2,3-d]pyrimidin-4-yl)-4,7-diaza-spiro[2.5]octane-4-sulfonic acid benzyl-methyl-amide] | < 0.1 | < 0.1 | 0.1 to 0.5 | < 0.1 |
| N#CCN(C1CCC1)S(=O)(=O)N1CCN(c2ncnc3[nH]ccc23)CC12CC2 [Example 100, N-(cyanomethyl)-N-cyclobutyl-5-(7H-pyrrolo[2,3-d]pyrimidin-4-yl)-5,8-diazaspiro[2.5]octane-8-sulfonamide] | < 0.1 | < 0.1 | < 0.1 | < 0.1 |
| O=S(=O)(N(CCc1ccccc1)CC1CCCCO1)N1CCN(c2ncnc3[nH]ccc23)CC12CC2 (centres unmarked) [Example 21, 7-(7H-Pyrrolo[2,3-d]pyrimidin-4-yl)-4,7-diaza-spiro[2.5]octane-4-sulfonic acid phenethyl-(tetrahydro-pyran-2-ylmethyl)-amide] | 0.1 to 0.5 | < 0.1 | > 0.5 | < 0.1 |
| CC(C#N)N(C1CCC1)S(=O)(=O)N1CCN(c2ncnc3[nH]ccc23)CC12CC2 (centres unmarked) [Example 107, N-(1-cyanoethyl)-N-cyclobutyl-5-(7H-pyrrolo[2,3-d]pyrimidin-4-yl)-5,8-diazaspiro[2.5]octane-8-sulfonamide] | < 0.1 | < 0.1 | 0.1 to 0.5 | < 0.1 |
| CN(CCCc1cccc(C#N)c1)S(=O)(=O)N1CCN(c2ncnc3[nH]ccc23)CC12CC2 [Example 30, 7-(7H-Pyrrolo[2,3-d]pyrimidin-4-yl)-4,7-diaza-spiro[2.5]octane-4-sulfonic acid [3-(3-cyano-phenyl)-propyl]-methyl-amide] | 0.1 to 0.5 | < 0.1 | > 0.5 | < 0.1 |
| CN(CC1CCC(F)(F)CC1)S(=O)(=O)N1CCN(c2ncnc3[nH]ccc23)CC12CC2 [Example 62, N-[(4,4-difluorocyclohexyl)methyl]-N-methyl-5-(7H-pyrrolo[2,3-d]pyrimidin-4-yl)-5,8-diazaspiro[2.5]octane-8-sulfonamide] | < 0.1 | < 0.1 | < 0.1 | < 0.1 |

The next lines start with the values.

| EC50 (JAK3) [µM] | EC50 (JAK2) [µM] | EC50 (TYK2) [µM] | EC50 (JAK1) [µM] | SMILES |
| --- | --- | --- | --- | --- |
| < 0.1 | < 0.1 | < 0.1 | < 0.1 | CN(C[C@@H]1CC(F)(F)CN1C(=O)CCC#N)S(=O)(=O)N1CCN(c2ncnc3[nH]ccc23)CC12CC2 [Example 156, N-[[(2S)-1-(3-cyanopropanoyl)-4,4-difluoro-pyrrolidin-2-yl]methyl]-N-methyl-5-(7H-pyrrolo[2,3-d]pyrimidin-4-yl)-5,8-diazaspiro[2.5]octane-8-sulfonamide] |
| 0.1 to 0.5 | < 0.1 | > 0.5 | < 0.1 | CN(C(=O)CC1CCS(=O)(=O)CC1)S(=O)(=O)N1CCN(c2ncnc3[nH]ccc23)CC12CC2 [Example 136, 2-(1,1-dioxothian-4-yl)-N-methyl-N-[[5-(7H-pyrrolo[2,3-d]pyrimidin-4-yl)-5,8-diazaspiro[2.5]octan-8-yl]sulfonyl]acetamide] |
| 0.1 to 0.5 | < 0.1 | > 0.5 | < 0.1 | O=S(=O)(NC1CCC1)N1CCN(c2ncnc3[nH]ccc23)CC12CC2 [Int 30] |
| < 0.1 | < 0.1 | 0.1 to 0.5 | < 0.1 | CN(C[C@@H]1CCCN1C(=O)CCO)S(=O)(=O)N1CCN(c2ncnc3[nH]ccc23)CC12CC2 [Example 193, N-[[(2S)-1-(3-hydroxypropanoyl)pyrrolidin-2-yl]methyl]-N-methyl-5-(7H-pyrrolo[2,3-d]pyrimidin-4-yl)-5,8-diazaspiro[2.5]octane-8-sulfonamide] |
| < 0.1 | < 0.1 | 0.1 to 0.5 | < 0.1 | N#CCN(CC#N)S(=O)(=O)N1CCN(c2ncnc3[nH]ccc23)CC12CC2 [Example 145, N,N-bis(cyanomethyl)-5-(7H-pyrrolo[2,3-d]pyrimidin-4-yl)-5,8-diazaspiro[2.5]octane-8-sulfonamide] |
| < 0.1 | < 0.1 | 0.1 to 0.5 | < 0.1 | CN(CC1CCS(=O)(=O)C1)S(=O)(=O)N1CCN(c2ncnc3[nH]ccc23)CC12CC2 (centres unmarked) [Example 165, N-[(1,1-dioxothiolan-3-yl)methyl]-N-methyl-5-(7H-pyrrolo[2,3-d]pyrimidin-4-yl)-5,8-diazaspiro[2.5]octane-8-sulfonamide] |
| < 0.1 | < 0.1 | 0.1 to 0.5 | < 0.1 | CN(C[C@H]1CCCN1C(=O)CC#N)S(=O)(=O)N1CCN(c2ncnc3[nH]ccc23)CC12CC2 [Example 189, N-[[(2R)-1-(2-cyanoacetyl)pyrrolidin-2-yl]methyl]-N-methyl-5-(7H-pyrrolo[2,3-d]pyrimidin-4-yl)-5,8-diazaspiro[2.5]octane-8-sulfonamide] |
| < 0.1 | < 0.1 | 0.1 to 0.5 | < 0.1 | CN(C[C@H]1CCCN1C=O)S(=O)(=O)N1CCN(c2ncnc3[nH]ccc23)CC12CC2 [Example 188, N-[[(2R)-1-formylpyrrolidin-2-yl]methyl]-N-methyl-5-(7H-pyrrolo[2,3-d]pyrimidin-4-yl)-5,8-diazaspiro[2.5]octane-8-sulfonamide] |
